Legend:
Assay in all cases: OD600 after 10 h growth (baseline-subtracted); higher = more bacterial growth (less inhibition)
[1] = test system: Staphylococcus aureus Newman
Description: (§1)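 Broth microdilution growth assay in Mueller Hinton broth, 100 µL in 96-well plates, inoculated 1:200 from OD600 0.1 overnight cultures by pinning, 37 °C with shaking at 800 rpm, 1:2 serial dilutions from 128 µg/mL (64 µg/mL for Ebastine). The read-out is OD600 after 10 h; curves were baseline-corrected by subtracting the minimum of the 2nd-4th measurements. Three biological replicates, with water and DMSO no-compound controls.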

[2] = test system: Escherichia coli IAI1
Description: as §1

[3] = test system: Pseudomonas aeruginosa PA14
Description: as §1

[4] = test system: Klebsiella pneumoniae MKP103
Description: as §1

[5] = test system: Escherichia coli CFT073 (UPEC)
Description: as §1

Cc1c(Cl)c(C)[n+]([O-])c(Cl)c1-c1noc(-c2cc(O)c(O)c([N+](=O)[O-])c2)n1 [Opicapone]
OD600 after 10 h growth
Settings	[1]	[2]	[3]	[4]	[5]
0.1 µg/mL	1.07	0.811	0.743	0.664	0.786
0.2 µg/mL	1.07	0.855	0.743	0.668	0.788
0.5 µg/mL	1.07	0.822	0.764	0.669	0.94
1 µg/mL	1.07	0.815	0.829	0.681	0.787
2 µg/mL	1.09	0.818	0.747	0.744	0.786
4 µg/mL	1.18	0.802	0.81	0.791	0.872
8 µg/mL	1.07	0.797	0.709	0.839	1.02
16 µg/mL	0.413	0.798	0.677	0.781	0.787
32 µg/mL	0.371	0.801	0.678	0.682	0.775
64 µg/mL	0.466	0.792	0.658	0.669	0.796
128 µg/mL	0.356	0.767	0.603	0.632	0.758

Cc1cn([C@H]2C[C@H](O)[C@@H](CO)O2)c(=O)[nH]c1=O [Thymidine]
OD600 after 10 h growth
Settings	[1]	[2]	[3]	[4]	[5]
0.1 µg/mL	1.08	0.814	0.756	0.666	0.783
0.2 µg/mL	1.07	0.952	0.899	0.669	0.956
0.5 µg/mL	1.07	0.803	0.749	0.67	0.788
1 µg/mL	1.22	0.802	0.748	0.666	0.794
2 µg/mL	1.16	0.81	0.758	0.674	0.891
4 µg/mL	1.39	0.808	0.853	0.69	0.89
8 µg/mL	1.28	0.805	0.748	0.838	0.932
16 µg/mL	1.23	0.804	0.745	0.773	0.873
32 µg/mL	1.1	0.792	0.738	0.684	0.804
64 µg/mL	1.09	0.782	0.718	0.672	0.786
128 µg/mL	1.1	0.772	0.645	0.645	0.772

CC1=C(C)C(=O)C(CCCCCCCCCC[P+](c2ccccc2)(c2ccccc2)c2ccccc2)=CC1=O [Visomitin]
OD600 after 10 h growth
Settings	[1]	[2]	[3]	[4]	[5]
0.1 µg/mL	1.08	0.805	0.762	0.672	0.786
0.2 µg/mL	1.08	0.808	0.757	0.672	0.787
0.5 µg/mL	1.09	0.8	0.757	0.676	0.785
1 µg/mL	1.08	0.848	0.754	0.674	0.785
2 µg/mL	0.0277	0.815	0.856	0.679	0.818
4 µg/mL	0.0387	0.795	0.821	0.686	0.809
8 µg/mL	0.0433	0.769	0.733	0.697	0.777
16 µg/mL	0.0257	0.045	0.717	0.7	0.0113
32 µg/mL	0.0217	0.0307	0.681	0.196	0.007
64 µg/mL	0.0133	0.032	0.0773	0.00967	0.0133
128 µg/mL	0.025	0.0327	0.0423	0.0183	0.024
